Experiments:
[1] = biological target: T1, pMON8186 encoded petunia EPSP synthase variant (glycine (101) to alanine and glycine (144) to aspartic acid) (Petunia hybrida, UniProt P11043, G173A/G216D); assay: EPSP synthase kinetic constants (appKi glyphosate, appKm PEP); format: biochemical
T1 construct: GGT codon for glycine (144) in the mature petunia EPSP synthase; made in house; host or cells: E. coli SR481
Protocol: The balance of the #215 preculture (~750 μl) was used to inoculate 2 ml of MOPS medium containing 50 μg/ml carbenicillin and was shaken overnight at 37° C. to reach saturation. Plasmid DNA was isolated from an aliquot of the saturated culture using an alkaline lysis procedure. The plasmid was designated pMON8186. An aliquot of the pMON8186 plasmid was used to transform the E. coli host SR481 (described above) and reselected on MOPS medium containing 10 mM glyphosate and 50 μg/ml carbenicillin. A single glyphosate resistant colony of pMON8186 was picked off the selection plate and used to inoculate 3 ml of 2XYT bacterial medium containing 50 μg/ml carbenicillin. The culture was then aerated on rotating wheel at 37° C. until saturated, then it was used to inoculate a larger 500 ml culture. The large culture was grown to saturation by shaking it overnight at 37° C. in a water bath. The bacterial cells were lysed and the extracts were assayed for EPSPS activity.
Specifically, the bacterial cell paste was washed twice with 0.9% saline, suspended in buffer (100 mM Tris-HCl, 5 mM benzamidine HCl) and passed twice through the French Pressure Cell at 1000 psi. The cell extract was separated from the cells by centrifuging at 15,000 x gravity for 10 mins. at 5° C. It was desalted using Sephadex G-50 (Pharmacia, Piscataway, N.J.). The desalted extract was assayed for EPSP synthase activity as follows:
To an assay mix (40 μl) containing shikimate-3-phosphate (2 mM), ^14 C-phosphoenolpyruvate (1 mM, 1.2 mCi/mmol), ammonium molybdate (0.1 mM), potassium fluoride (5 mM) in 50 mM HEPES-KOH, pH 7, was added the extract and incubated at 25° C. for 2 mins. The reaction was quenched by the addition of 50 μl of 50 μl of 90% ethanol/0.1M acetic acid, pH 4.5. […] The radioactivity of the eluent was monitored using a Radiomatic Flo-One Beta Instrument. […] The EPSP synthase activity was determined by measurement of the conversion of ^14 C-PEP to ^14 C-EPSP synthase, both of which are resolved under the above conditions of chromatography. The protein content of the extract was determined by the method of Bradford (Biorad Labs, Calif.). The specific activity of the extract is expressed as nanomoles of EPSP synthase formed/min/mg protein.
Kinetic constants (appKm PEP and appKi glyphosate) were determined for EPSP synthase as described below. Substrate kinetic parameters were determined at pH 7.0 in 50 mM HEPES (N-[2-hydroxyethyl]piperazine-N'-[2-ethanesulfonic acid]) buffer in the presence of 2 mM S3P and varying amounts of ^14 C-PEP (10 μM-400 μM), for 2.0 minutes at 25° C. Reactions were quenched with 100 mM Na Acetate in ethanol, pH 4.5, centrifuged and analyzed for product EPSP formation by HPLC with flow radioactivity detection. […]

[2] = biological target: T2, variant petunia EPSP synthase with glycine (101) to alanine and glycine (144) to asparagine substitutions (Petunia hybrida, UniProt P11043, G173A/G216N); assay: EPSP synthase kinetic constants (Ki glyphosate, Km PEP); format: biochemical
T2 construct: GGT codon for glycine (144) in the mature petunia EPSP synthase
T2 sequence (P11043 73-516 G173A/G216N): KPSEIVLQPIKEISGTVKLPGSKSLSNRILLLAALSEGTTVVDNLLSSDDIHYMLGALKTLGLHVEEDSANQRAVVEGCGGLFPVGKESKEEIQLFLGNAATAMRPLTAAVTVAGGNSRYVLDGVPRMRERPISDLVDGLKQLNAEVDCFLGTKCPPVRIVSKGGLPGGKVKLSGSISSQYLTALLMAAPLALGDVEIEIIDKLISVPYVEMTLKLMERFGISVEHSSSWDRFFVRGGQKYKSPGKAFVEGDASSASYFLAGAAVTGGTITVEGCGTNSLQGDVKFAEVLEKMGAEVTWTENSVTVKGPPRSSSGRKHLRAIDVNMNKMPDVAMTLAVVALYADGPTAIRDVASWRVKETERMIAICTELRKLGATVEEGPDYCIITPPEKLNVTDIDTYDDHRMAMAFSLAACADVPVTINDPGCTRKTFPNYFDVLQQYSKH
Protocol: (§1) Kinetic constants (appKm PEP and appKi glyphosate) were determined for EPSP synthase as described below. Substrate kinetic parameters were determined at pH 7.0 in 50 mM HEPES (N-[2-hydroxyethyl]piperazine-N'-[2-ethanesulfonic acid]) buffer in the presence of 2 mM S3P and varying amounts of ^14 C-PEP (10 μM-400 μM), for 2.0 minutes at 25° C. Reactions were quenched with 100 mM Na Acetate in ethanol, pH 4.5, centrifuged and analyzed for product EPSP formation by HPLC with flow radioactivity detection. HPLC conditions were 0.35 MKPi, pH 6.5, on a Synchropak AX100 column at 1.0 ml/min.

[3] = biological target: T3, petunia EPSP synthase glycine (101) to alanine variant (Petunia hybrida, UniProt P11043, G173A); assay: EPSP synthase kinetic constants (appKi glyphosate, appKm PEP); format: biochemical; settings: relative to wild type
T3 construct: made in house; host or cells: E. coli
T3 sequence (P11043 73-516 G173A): as the sequence (P11043 73-516 G173A/G216N) above, with N144G counted along it
Protocol: To an assay mix (40 μl) containing shikimate-3-phosphate (2 mM), ^14 C-phosphoenolpyruvate (1 mM, 1.2 mCi/mmol), ammonium molybdate (0.1 mM), potassium fluoride (5 mM) in 50 mM HEPES-KOH, pH 7, was added the extract and incubated at 25° C. for 2 mins. The reaction was quenched by the addition of 50 μl of 50 μl of 90% ethanol/0.1M acetic acid, pH 4.5. 70 μl of the reaction mixture was loaded on a SynchroPak AX100 HPLC column (0.4×25 cm) and the column was eluted with 0.5M potassium phosphate, pH 5.5 at 1 ml/min. The radioactivity of the eluent was monitored using a Radiomatic Flo-One Beta Instrument. (Radiomatics, Fla.). The EPSP synthase activity was determined by measurement of the conversion of ^14 C-PEP to ^14 C-EPSP synthase, both of which are resolved under the above conditions of chromatography. The protein content of the extract was determined by the method of Bradford (Biorad Labs, Calif.). The specific activity of the extract is expressed as nanomoles of EPSP synthase formed/min/mg protein.
as §1

[4] = substrate: C=C(OP(=O)(O)O)C(=O)O; assay: purified protein, by the assay type; settings: 25.0 °C

T1 sequence (P11043 73-516 G173A/G216D): as the sequence (P11043 73-516 G173A/G216N) above, with N144D counted along it

## C=C(OP(=O)(O)O)C(=O)O [PEP, phosphoenolpyruvate]
[1]
  Km for PEP: 40 µM
  Km for PEP relative to the glycine (101) to alanine variant: more than four fold lower
[2]
  Km for PEP: 91 µM

## O=C(O)C1=C[C@@H](OP(=O)(O)O)[C@@H](O)[C@H](O)C1 [S3P, shikimate-3-phosphate]
[3]
  binding constant for shikimate-3-phosphate (S3P): not affected

B1: wild type petunia EPSP synthase (Petunia x hybrida) (protein)
chain: KPSEIVLQPIKEISGTVKLPGSKSLSNRILLLAALSEGTTVVDNLLSSDDIHYMLGALKTLGLHVEEDSANQRAVVEGCGGLFPVGKESKEEIQLFLGNAGTAMRPLTAAVTVAGGNSRYVLDGVPRMRERPISDLVDGLKQLGAEVDCFLGTKCPPVRIVSKGGLPGGKVKLSGSISSQYLTALLMAAPLALGDVEIEIIDKLISVPYVEMTLKLMERFGISVEHSSSWDRFFVRGGQKYKSPGKAFVEGDASSASYFLAGAAVTGGTITVEGCGTNSLQGDVKFAEVLEKMGAEVTWTENSVTVKGPPRSSSGRKHLRAIDVNMNKMPDVAMTLAVVALYADGPTAIRDVASWRVKETERMIAICTELRKLGATVEEGPDYCIITPPEKLNVTDIDTYDDHRMAMAFSLAACADVPVTINDPGCTRKTFPNYFDVLQQYSKH
[4]
  Km: 5.2 µM

From patent US5310667A (priority 1989, dated 1994)
